21 molecules from patent publication US7423054B2, “Therapeutic pyrazolo[3,4-b]pyridines and indazoles” (Warner Lambert Company LLC, priority 2004, dated 2008) can be followed below.

Assay [1] concerns capsaicin-induced mechanical allodynia. As to the kind of experiment: Rat model of capsaicin-induced mechanical allodynia (paw withdrawal threshold, Von Frey). The format is in vivo. To be noted: for inhibition in vivo at 10 mg/kg: Rattus norvegicus, po, 2 h, read-out: % inhibition +/− SEM. The protocol:
In certain embodiments, the compounds of formula I may be assayed for their ability to alleviate capsaicin-induced mechanical allodynia in a rat (e.g., Sluka, K A, (2002) J of Neuroscience, 22(13): 5687-5693). For example, a rat model of capsaicin-induced mechanical allodynia) can be carried out as follows:
On day 0, male Sprague-Dawley rats (˜150 g) in the dark cycle are placed in suspended wire-bottom cages and allowed to acclimate for 0.5 h in a darkened, quiet room. The day 0 paw withdrawal threshold (PWT) is determined on the left hind paw by Von Frey hair assessment using the Dixon up and down method. After assessment, the plantar muscle of the right hind paw is injected with 100 μl capsaicin (0.25% in 10% ethanol, 10% Tween 80, in sterile saline). On day 6 the PWT of the left hindpaw (contralateral from injection site) is determined for each animal. Animals from the day 6 prereads with PWT≦11.7 g are considered allodynic responders and are regrouped so that each cage had similar mean PWT values. On day 7, responders are dosed (e.g., orally, intraperitoneally, and subcutaneously, etc.) with 10 ml/kg vehicle (0.5% HPMC(hydroxy-propylmethylcellulose)/0.2% Tween™ 80), or vehicle plus compound. The contralateral PWT values are determined at 2 hours (or at about the time corresponding to the estimated Cmax) after the single dose, with the investigator blinded to the dosing scheme. Those of skill in the art can determine the appropriate time to determine the contralateral PWT value (e.g., 1 hour, 2 hours, etc.).
For each animal, the day 6 PWT value is subtracted from the 2 hour PWT value to give a delta PWT value that represents the change in PWT due to the 2 hour drug treatment. In addition, the day 6 PWT is subtracted from the day 0 PWT to give the baseline window of allodynia present in each animal. To determine % inhibition of allodynia of each animal normalized for vehicle controls, the following formula is used: % Inhibition of Allodynia=100×(Delta PWT(drug)−mean Delta PWT(vehicle))/(Baseline−mean Delta PWT(vehicle)). Pharmaceutically Acceptable Salts and Solvates
Compounds of the present invention may be assayed for their ability to alleviate capsaicin-induced mechanical allodynia in a rat model (e.g., Sluka (2002) J of Neuroscience, 22(13)5687-5693). For example, a rat model of capsaicin-induced mechanical allodynia was carried out as follows:
On day 0, male Sprague-Dawley rats (˜150 g) in the dark cycle were placed in suspended wire-bottom cages and allowed to acclimate for 0.5 hour in a darkened, quiet room. The day 0 paw withdrawal threshold (PWT) was determined on the left hind paw by Von Frey hair assessment using the Dixon up and down method. After assessment, the plantar muscle of the right hind paw was injected with 100 μl capsaicin (0.25% (w/v) in 10% ethanol, 10% Tween 80, in sterile saline). On day 6 the PWT of the left hindpaw (contralateral from injection site) was determined for each animal. Animals from the day 6 prereads with PWT≦11.7 g were considered allodynic responders and were regrouped so that each cage had similar mean PWT values.
On day 7, responders were dosed subcutaneously with 30 mg of the compound of Example 7/kg body weight, 10 mg of the compound of the compound of Example 48/kg body weight, or with vehicle alone. The vehicle was phosphate buffered saline containing 2% Cremophor®) EL (BASF).
For the animals dosed with the compound of Example 7, the contralateral PWT values were determined at 2 hour after the single dose, with the investigator blinded to the dosing scheme.
For each animal, the day 6 PWT value was subtracted from the 2 hour PWT value for the 10 mg/kg doses to give a delta PWT value that represents the change in PWT due to the […] drug treatment. In addition, the day 6 PWT was subtracted from the day 0 PWT to give the baseline window of allodynia present in each animal. […]

The target of assay [2] is T1, human norepinephrine transporter (hNET) (Homo sapiens, UniProt P23975).
T1 construct: expressed in transfected cells; host or cells: HEK-293 cells (membrane preparation)
T1 sequence (P23975 whole entry): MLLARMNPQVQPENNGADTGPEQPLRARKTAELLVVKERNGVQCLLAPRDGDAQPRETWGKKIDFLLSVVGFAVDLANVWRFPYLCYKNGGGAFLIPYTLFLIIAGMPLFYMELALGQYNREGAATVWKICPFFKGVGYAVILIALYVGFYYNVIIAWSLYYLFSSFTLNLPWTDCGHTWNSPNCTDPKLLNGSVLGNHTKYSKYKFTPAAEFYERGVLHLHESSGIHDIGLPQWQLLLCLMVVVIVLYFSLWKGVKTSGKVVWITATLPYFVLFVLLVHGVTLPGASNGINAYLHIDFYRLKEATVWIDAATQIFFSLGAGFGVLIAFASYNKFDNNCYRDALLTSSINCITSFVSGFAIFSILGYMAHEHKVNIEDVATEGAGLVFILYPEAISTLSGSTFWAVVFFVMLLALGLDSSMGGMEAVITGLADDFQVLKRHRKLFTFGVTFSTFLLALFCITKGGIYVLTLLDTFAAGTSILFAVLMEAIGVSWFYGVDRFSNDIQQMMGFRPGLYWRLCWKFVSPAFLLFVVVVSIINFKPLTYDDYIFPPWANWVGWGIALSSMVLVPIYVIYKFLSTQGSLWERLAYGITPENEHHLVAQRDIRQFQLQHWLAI
The assay is described as follows: hNET receptor binding ([125I]-RTI-55 displacement, membranes of transfected HEK-293 cells). To be noted: HEK-293 membranes, Ki from IC50 by Cheng-Prusoff, read-out: NET Ki. The method in brief:
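Membranes from HEK-293 cells expressing human NET were incubated 90 min at room temperature with 50 pM [125I]-RTI-55 and compound (10^−5 to 10^−12 M) in Krebs-HEPES buffer, pH 7.4. Bound radioligand was counted after filtration, with nonspecific binding defined by 10 μM desipramine. IC50 was converted to Ki by Cheng-Prusoff.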

Assay [3] has as its target T2, human serotonin transporter (hSERT) (Homo sapiens, UniProt P31645).
T2 construct: expressed in transfected cells; host or cells: HEK-293 cells (membrane preparation)
The assay is described as follows: hSERT receptor binding ([125I]-RTI-55 displacement, membranes of transfected HEK-293 cells). To be noted: HEK-293 membranes, Ki from IC50 by Cheng-Prusoff, read-out: SERT Ki. The method in brief:
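Membranes from HEK-293 cells expressing human SERT were incubated 90 min at room temperature in Krebs-HEPES (pH 7.4) with 50 pM [125I]-RTI-55 and compound (10^-12 to 10^-5 M), in duplicate. Nonspecific binding was defined with 10 μM citalopram. Ki from IC50 by Cheng-Prusoff.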

Setting [4] is: male Sprague-Dawley rats, oral single dose 10 mg/kg, contralateral PWT at 2 hours after dose, mean of eight animals.

SMILES strings stand for the structures. Counter-ions that a name gives are not always drawn. Like-named read-outs stand apart in the source and are kept apart here.

T2 sequence (P31645 whole entry): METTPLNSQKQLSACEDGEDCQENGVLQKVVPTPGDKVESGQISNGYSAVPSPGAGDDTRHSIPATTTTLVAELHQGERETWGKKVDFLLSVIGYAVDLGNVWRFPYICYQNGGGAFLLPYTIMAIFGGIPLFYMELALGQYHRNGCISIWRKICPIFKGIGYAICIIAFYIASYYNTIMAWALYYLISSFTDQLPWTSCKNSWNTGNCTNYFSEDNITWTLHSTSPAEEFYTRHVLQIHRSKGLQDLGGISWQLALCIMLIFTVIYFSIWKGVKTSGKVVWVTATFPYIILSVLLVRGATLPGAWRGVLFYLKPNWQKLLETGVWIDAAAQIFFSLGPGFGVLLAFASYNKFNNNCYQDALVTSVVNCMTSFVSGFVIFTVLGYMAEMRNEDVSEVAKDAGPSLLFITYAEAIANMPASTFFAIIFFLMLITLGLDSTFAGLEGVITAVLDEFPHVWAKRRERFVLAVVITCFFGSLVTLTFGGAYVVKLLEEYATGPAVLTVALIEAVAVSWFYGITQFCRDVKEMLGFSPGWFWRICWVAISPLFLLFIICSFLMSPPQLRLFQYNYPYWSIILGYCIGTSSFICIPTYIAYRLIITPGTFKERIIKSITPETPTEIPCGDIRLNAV

One may read the Ki as the dissociation constant of the complex between target and ligand, obtained from inhibition or displacement. As to `Fc1ccc(-n2nc(OC[C@@H]3CNCCO3)c3cc(F)ccc32)c(F)c1.O=C(O)/C=C\C(=O)O` [Example 48, (S)-(+)-1-(2,4-Difluorophenyl)-5-fluoro-3-(morpholin-2-ylmethoxy)-1H-indazole maleate], the “% Inhibition of Allodynia +/− SEM” value in assay [1] (male Sprague-Dawley rats, subcutaneous single dose 10 mg/kg, contralateral PWT at 1 hour after dose, mean of eight animals) is given as 74.9% +/− 14.8. Besides, the results for the Ki in assay [2] and in assay [3] were 10.2 nM and 298 nM, respectively.
Consider `Fc1cccc(-n2nc(OC3CCNCC3)c3ccccc32)c1` [Example 43, 1-(3-Fluoro-phenyl)-3-(piperidin-4-yloxy)-1H-indazole hydrochloride], for which the inhibition in vivo at 10 mg/kg in assay [1] (setting [4]) came to 55.4%. Further, the figures for the Ki in assay [2] and in assay [3] were 17.9 nM and 138 nM, respectively.
For `Fc1ccc(-n2nc(OC[C@@H]3CCNC3)c3ccccc32)c(F)c1` [Example 9, (R)-1-(2,4-Difluoro-phenyl)-3-(pyrrolidin-3-ylmethoxy)-1H-indazole hydrochloride] the same measures were 34.1%, 5.63 nM and 81.6 nM.
Take `Fc1ccc(-n2nc(OC3CCNCC3)c3cc(F)ccc32)c(F)c1` [Example 56, 1-(2,4-Difluoro-phenyl)-5-fluoro-3-(piperidin-4-yloxy)-1H-indazole hydrochloride]: in assay [1] (setting [4]), the inhibition in vivo at 10 mg/kg worked out at 11%. The Ki in assay [2] stood at 6.13 nM; in assay [3], 9.99 nM.
Regarding `Fc1ccc(F)c(-n2nc(OC[C@H]3CCNC3)c3ccccc32)c1` [Example 32, (S)-1-(2,5-Difluoro-phenyl)-3-(pyrrolidin-3-ylmethoxy)-1H-indazole hydrochloride], the inhibition in vivo at 10 mg/kg in assay [1] (setting [4]) stood at 60.7%. Further, the Ki in assay [2] turned out to be 3.41 nM; in assay [3], 33.6 nM.
In the case of `Fc1ccc2c(c1)c(OC1CCNCC1)nn2-c1ccccc1F` [Example 51, 5-Fluoro-1-(2-fluoro-phenyl)-3-(piperidin-4-yloxy)-1H-indazole hydrochloride], the inhibition in vivo at 10 mg/kg in assay [1] (setting [4]) came to 26%. Also, the results for the Ki in assay [2] and in assay [3] were 11.9 nM and 53.7 nM, respectively.
Take `Fc1ccccc1-n1nc(OC2CCNCC2)c2ccccc21` [Example 1, 1-(2-Fluorophenyl)-3-(piperidin-4-yloxy)-1H-indazole hydrochloride]: the inhibition in vivo at 10 mg/kg in assay [1] is 67.7%. Moreover, the results for the inhibitory constant (Ki) in assay [2] and in assay [3] were 3.14 nM and 51.1 nM, respectively.
Take `Fc1ccc(F)c(-n2nc(OC3CCNCC3)c3ccccc32)c1` [Example 27, 1-(2,5-Difluoro-phenyl)-3-(piperidin-4-yloxy)-1H-indazole hydrochloride]: in assay [1] (setting [4]), the inhibition in vivo at 10 mg/kg was found to be 27%. The Ki in assay [2] stood at 6.34 nM; in assay [3] it was 42.3 nM.
On the same counts, the results for `c1ccc(-n2nc(OC3CCNCC3)c3ccccc32)cc1` [Example 20, 1-Phenyl-3-(piperidin-4-yloxy)-1H-indazole hydrochloride] are 41.1%, 20.2 nM and 122 nM.
For `c1ccc(-n2nc(OC[C@@H]3CCNC3)c3ccccc32)cc1` [Example 14, (R)-1-Phenyl-3-(pyrrolidin-3-ylmethoxy)-1H-indazole hydrochloride] the same measures were 30.8%, 13.1 nM and 100 nM.
On the same counts, the results for `Fc1ccc(-n2nc(OC[C@H]3CCNC3)c3ccccc32)c(F)c1` [Example 8, (S)-1-(2,4-Difluoro-phenyl)-3-(pyrrolidin-3-ylmethoxy)-1H-indazole hydrochloride] are 11.5%, 5.19 nM and 39 nM.
Take `Fc1ccc(F)c(-n2nc(OC[C@@H]3CCNC3)c3ccccc32)c1` [Example 30, (R)-1-(2,5-Difluoro-phenyl)-3-(pyrrolidin-3-ylmethoxy)-1H-indazole hydrochloride]: in assay [1] (setting [4]), the inhibition in vivo at 10 mg/kg amounted to 68%. Besides, the values for the Ki in assay [2] and in assay [3] were 4.44 nM and 64.6 nM, respectively.
Consider `Fc1ccc(F)c(-n2nc(OCC3CCCNC3)c3ccccc32)c1` (racemic) [Example 31, (±)-1-(2,5-Difluoro-phenyl)-3-(piperidin-3-ylmethoxy)-1H-indazole hydrochloride], for which the inhibition in vivo at 10 mg/kg in assay [1] (setting [4]) amounted to 47%. Further, the values for the Ki in assay [2] and in assay [3] were 6.58 nM and 134 nM, respectively.
On the same counts, the results for `Fc1ccc2c(c1)c(OC[C@H]1CCCNC1)nn2-c1ccccc1F` [Example 45, (S)-(−)-5-Fluoro-1-(2-fluorophenyl)-3-(piperidin-3-ylmethoxy)-1H-indazole maleate] are 46.2%, 3.2 nM and 47.5 nM.
Consider `Cl.Fc1ccccc1-n1nc(OC[C@H]2CCNC2)c2ccccc21` [Example 7, (S)-(−)-1-(2-Fluorophenyl)-3-(pyrrolidin-3-ylmethoxy)-1H-indazole hydrochloride], for which the inhibition in vivo at 10 mg/kg in assay [1] (setting [4]) was 12.2%. Besides, the “% Inhibition of Allodynia +/− SEM” value in assay [1] (male Sprague-Dawley rats, subcutaneous single dose 30 mg/kg, contralateral PWT at 2 hour after dose, mean of eight animals) is listed as 71.5 +/− 4.6%. The Ki was determined as 5.3 nM in assay [2] and 54.7 nM in assay [3].
For `Fc1ccccc1-n1nc(OC2CCNCC2)c2c(F)cccc21` [Example 100, 4-Fluoro-1-(2-fluoro-phenyl)-3-(piperidin-4-yloxy)-1H-indazole hydrochloride], in assay [1] (setting [4]), the inhibition in vivo at 10 mg/kg is 8.7%. Besides, the values for the Ki in assay [2] and in assay [3] were 4.63 nM and 102 nM, respectively.
On the same counts, the results for `Fc1ccc(-n2nc(OC3CCNCC3)c3ccccc32)cc1` [Example 42, 1-(4-Fluoro-phenyl)-3-(piperidin-4-yloxy)-1H-indazole hydrochloride] are 31.7%, 25.9 nM and 81 nM.
`Fc1ccc(F)c(-n2nc(OC[C@H]3CCCNC3)c3ccccc32)c1` [Example 38, (S)-1-(2,5-Difluoro-phenyl)-3-(piperidin-3-ylmethoxy)-1H-indazole hydrochloride]: the Ki stood at 6.09 nM in assay [2] and 199 nM in assay [3].
`Cc1ccc2c(OC3CCNCC3)nn(-c3ccccc3F)c2c1` [Example 72, 1-(2-Fluoro-phenyl)-6-methyl-3-(piperidin-4-yloxy)-1H-indazole hydrochloride]: the Ki in assay [2] turned out to be 27.4 nM; in assay [3] it was 9.76 nM.
For `Fc1cccc(F)c1-n1nc(OC[C@H]2CCNC2)c2ccccc21` [Example 37, (S)-1-(2,6-Difluoro-phenyl)-3-(pyrrolidin-3-ylmethoxy)-1H-indazole hydrochloride] the same measures were 6.05 nM and 105 nM.
For `Fc1ccc(-n2nc(OC3CCNCC3)c3c(F)cccc32)cc1` [Example 83, 4-Fluoro-1-(4-fluoro-phenyl)-3-(piperidin-4-yloxy)-1H-indazole hydrochloride] the same measures were 49.3 nM and 191 nM.
